Experimental data: US10016418B2, “Compounds useful as modulators of TRPM8” (Senomyx, Inc., priority 2010, dated 2018)
pEC50: −log10 of the molar value. One block for each compound: values may come before it.

Tests used:
hTRPM8 = target: T1, hTRPM8 (Homo sapiens, UniProt Q7Z2W7); experiment: hTRPM8 agonist assay in a mammalian cell line stably expressing hTRPM8; format: cell-based; details: for EC50 WS-3 Ratio: EC50 ratio to WS-3
T1 construct: expressed in transfected cells
Method: A mammalian cell line derivative which stably expresses hTRPM8 was used in biological assays in association with testing the present compounds with cool-tasting or -feeling properties (Servant et al. US 2007/0259354 A1 and references cited therein). Typical compound concentrations tested were 100 μM, 50 μM, 10 μM, 1 μM, and 0.5 μM. The present compounds have shown strong activity as agonists of hTRPM8. Assay results for compounds are illustrated in Table 1 below. Specifically, the Examples listed in Table 1, i.e., Compounds A1 to Compounds U10 are the specific compounds, i.e., Examples, as described above.

[1] = Cool Line Scale Test (sensory panel, 15 point line scale, WS-3 reference); format: in vivo, human
Method: All samples made with Low Sodium Buffer (LSB) pH ˜7.1 and contain 0.1% ethanol.
Compounds are rated on a 15 point line scale where 45 μM WS-3 (N-Ethyl-p-menthane-3-carboxamide) is ranked as a 5 in cool intensity. In most cases our compounds are tested to determine at what concentration the cooling intensity is equivalent to 45 μM WS-3. In each test, the panelist is presented with a 0 μM control sample, a 45 μM WS-3 control sample and the experimental compound sample and asked to rate the cooling intensity of each sample. Panelists are also asked to rate bitterness. In the table below there was no significant bitterness detected unless otherwise noted. Also, in the table below, n represents the number of tests completed for a given experiment (#panelists x #repetitions).
All samples were prepared with Low Sodium Buffer (LSB) pH ˜7.1 and contain 0.1% ethanol

[2] = Table 1, cell line stably expressing hTRPM8
[3] = Table 7, scaffold T7, Ar phenyl vs thienyl

T1 sequence (Q7Z2W7 whole entry): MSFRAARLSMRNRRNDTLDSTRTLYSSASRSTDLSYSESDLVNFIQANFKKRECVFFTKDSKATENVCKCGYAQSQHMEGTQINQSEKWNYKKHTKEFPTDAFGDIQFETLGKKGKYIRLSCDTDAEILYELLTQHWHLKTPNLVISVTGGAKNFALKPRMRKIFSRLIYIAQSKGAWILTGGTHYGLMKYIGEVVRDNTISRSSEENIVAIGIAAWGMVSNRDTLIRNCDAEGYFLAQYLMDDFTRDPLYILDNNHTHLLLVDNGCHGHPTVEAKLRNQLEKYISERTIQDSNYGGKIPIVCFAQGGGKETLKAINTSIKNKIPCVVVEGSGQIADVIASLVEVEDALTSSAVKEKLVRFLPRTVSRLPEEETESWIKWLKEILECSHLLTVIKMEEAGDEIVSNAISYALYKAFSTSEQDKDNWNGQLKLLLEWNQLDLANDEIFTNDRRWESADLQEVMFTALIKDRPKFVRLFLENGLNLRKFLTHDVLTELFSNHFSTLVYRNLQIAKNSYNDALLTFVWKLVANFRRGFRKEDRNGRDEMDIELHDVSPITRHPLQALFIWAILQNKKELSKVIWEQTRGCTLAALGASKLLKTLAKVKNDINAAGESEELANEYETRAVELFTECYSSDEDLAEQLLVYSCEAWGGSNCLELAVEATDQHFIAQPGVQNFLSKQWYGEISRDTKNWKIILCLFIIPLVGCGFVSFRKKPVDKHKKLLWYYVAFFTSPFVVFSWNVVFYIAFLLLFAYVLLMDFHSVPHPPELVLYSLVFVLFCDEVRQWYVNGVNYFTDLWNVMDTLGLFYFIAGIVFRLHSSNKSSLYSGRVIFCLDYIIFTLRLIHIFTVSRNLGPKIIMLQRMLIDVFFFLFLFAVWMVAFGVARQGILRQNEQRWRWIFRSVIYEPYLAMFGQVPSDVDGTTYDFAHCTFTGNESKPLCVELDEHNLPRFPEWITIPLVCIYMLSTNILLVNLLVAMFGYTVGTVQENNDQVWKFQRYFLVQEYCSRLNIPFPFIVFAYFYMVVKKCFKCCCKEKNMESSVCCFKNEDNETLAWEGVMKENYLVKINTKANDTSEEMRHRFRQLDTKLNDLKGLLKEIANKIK

Compound: CCN(Cc1cccs1)C(=O)/C=C/c1ccc2c(c1)OCO2
pEC50 (hTRPM8; Table 8, scaffold T8): < 9.00

Compound: O=C(COc1ccc2c(c1)CCC2)N(Cc1cccs1)c1cc[nH]n1 [Example A1, 2-(2,3-dihydro-1H-inden-5-yloxy)-N-(1H-pyrazol-3-yl)-N-(thiophen-2-ylmethyl)acetamide]
EC50 WS-3 Ratio (hTRPM8; Table 1): 782471
pEC50 (hTRPM8; [2]): 11.05

Compound: Cc1c[nH]nc1N(Cc1cccs1)C(=O)COc1ccc2c(c1)CCC2 [Example B1, 2-(2,3-dihydro-1H-inden-5-yloxy)-N-(4-methyl-1H-pyrazol-3-yl)-N-(thiophen-2-ylmethyl)acetamide]
EC50 WS-3 Ratio (hTRPM8; Table 1): 1000000
pEC50 (hTRPM8; [2]): 12.00
Sensory Results: cooling compared with 0 μM WS-3 ([1]; compound at 5 μM): Panelists found 5 μM Compound B2 was significantly more cooling

Compound: O=C(COc1ccc2c(c1)CCC2)N(Cc1cccs1)c1cn[nH]c1 [Example C1, 2-(2,3-dihydro-1H-inden-5-yloxy)-N-(1H-pyrazol-4-yl)-N-(thiophen-2-ylmethyl)acetamide]
EC50 WS-3 Ratio (hTRPM8; Table 1): 502141
pEC50 (hTRPM8; [2]): 10.77

Compound: Cc1ccc(OCC(=O)N(Cc2cccs2)c2ccn[nH]2)cc1 [Example F1, N-(1H-pyrazol-5-yl)-N-(thiophen-2-ylmethyl)-2-(p-tolyloxy)acetamide]
EC50 WS-3 Ratio (hTRPM8; Table 1): 21178
pEC50 (hTRPM8; [2]): 9.69
Average Cooling ([1]; Table 4, 3 μM in LSB pH ~7.1, 0.1% ethanol, n = 28): 5.1
Sensory Results: cooling compared with 0 μM WS-3 ([1]; compound at 3 μM): Panelists found 3 μM Compound F1 was significantly more cooling
Sensory Results: cooling compared with 45 μM WS-3 ([1]; compound at 3 μM): not significantly different in cooling

Compound: CCN(Cc1cccs1)C(=O)COc1ccc(C)cc1 [Example U1, N-ethyl-N-(thiophen-2-ylmethyl)-2-(p-tolyloxy)acetamide]
EC50 WS-3 Ratio (hTRPM8; Table 1): 577
pEC50 (hTRPM8; [2]): 8.11
Sensory Results: cooling compared with 0 μM WS-3 ([1]; compound at 5 μM): Panelists found 5 μM Compound U1 was significantly more cooling

Compound: CCNC(=O)C1CC(C)CCC1C(C)C (centres unmarked) [WS-3, N-Ethyl-p-menthane-3-carboxamide, reference compound]
Average Cooling ([1]; Table 2, 45 μM WS-3 control, LSB pH ~7.1, 0.1% ethanol, n = 30): 3.8
Average Cooling ([1]; Table 4, 45 μM WS-3 control, n = 28): 5.2

Compound: CCN(Cc1cccs1)C(=O)COc1ccc(C)cc1 [drawing 234: 4-Me, Ethyl, Thienyl]
pEC50 (hTRPM8; [3]): 8.16

Compound: Cc1ccc(OCC(=O)N(C)Cc2cccs2)cc1 [drawing 234: 4-Me, Methyl, Thienyl]
pEC50 (hTRPM8; [3]): 6.43

Compound: CCN(Cc1ccccc1)C(=O)COc1ccccc1 [drawing 234: H, Ethyl, Phenyl, reference compound]
pEC50 (hTRPM8; [3]): 5.04

Compound: CCN(Cc1cccs1)C(=O)COc1ccccc1 [drawing 234: H, Ethyl, Thienyl]
pEC50 (hTRPM8; [3]): 5.84

More lines, now with the values ahead:

pEC50 (hTRPM8; [3]): 4.81
Compound: O=C(COc1ccc(Br)cc1)N(Cc1ccccc1)c1ccccn1 [drawing 234: 4-Br, 2-Pyridyl, Phenyl, reference compound]

pEC50 (hTRPM8; [3]): 5.64
Compound: O=C(COc1ccc(Br)cc1)N(Cc1cccs1)c1ccccn1 [drawing 234: 4-Br, 2-Pyridyl, Thienyl]

pEC50 (hTRPM8; [3]): 5.63
Compound: O=C(COc1ccc(Cl)cc1)N(Cc1cccs1)c1ccccn1 [drawing 234: 4-Cl, 2-Pyridyl, Thienyl]

pEC50 (hTRPM8; [3]): 5.33
Compound: Cc1ccc(OCC(=O)N(Cc2ccccc2)c2ccccn2)cc1 [drawing 234: 4-Me, 2-Pyridyl, Phenyl, reference compound]

pEC50 (hTRPM8; [3]): 6.30
Compound: Cc1ccc(OCC(=O)N(Cc2cccs2)c2ccccn2)cc1 [drawing 234: 4-Me, 2-Pyridyl, Thienyl]

pEC50 (hTRPM8; [3]): 6.11
Compound: CCN(Cc1ccccc1)C(=O)COc1ccc(C)cc1 [drawing 234: 4-Me, Ethyl, Phenyl, reference compound]

pEC50 (hTRPM8; [3]): < 4.00
Compound: Cc1ccc(OCC(=O)N(C)Cc2ccccc2)cc1 [drawing 234: 4-Me, Methyl, Phenyl, reference compound]
